Source: US9910031B2, “Compositions and methods for modulating c-Rel-dependent cytokine production” (Synta Pharmaceuticals Corporation, priority 2003, dated 2018)
pIC50: −log10 of the molar value.

How the values were obtained:
IL-12 p35 mRNA [1] = assay: Northern blot of IL-12 p35 mRNA in IFN-γ/SAC-stimulated THP-1 cells; type: cell-based, human; conditions: THP-1, IFN-γ/SAC, 1 μM Compound 1
Protocol: (§1) Northern blot analysis was performed to examine the mRNA levels of IL-12 p35 and p40. Human PBMC and the human monocyte cell line THP-1 cells were stimulated with IFN-γ/SAC in the presence or absence of Compound 1. Human PBMC were isolated by centrifugation using Ficoll-Paque (Pharmacia Biotech, Uppsala, Sweden) and prepared in RPMI medium supplemented with 10% fetal calf serum (FCS), 100 U/ml penicillin, and 100 μg/ml streptomycin, in a 96-well plate with 5×10^5 cells/well. The cells were then primed with IFN-γ (100 U/ml) and followed by 0.01% SAC or 1 μg/ml LPS, in the presence of different concentrations of Compound 2 or other compounds. The test compounds were prepared in DMSO and the final DMSO concentration was adjusted to 0.25% in all cultures, including the compound-free control. Cell-free supernatants were taken 18 h later for the measurement of cytokines. The THP-1 cells were obtained from American Type Culture Collection (Manassas, Va.) and were cultured in RPMI 1640 (ATCC, Manassas, Va.), supplemented with 10% FCS (ATCC, Manassas, Va.), and 1% penicillin/Streptomycin (Gibco-BRL, New York, N.Y.). Total RNA was isolated and subjected to Northern blot analysis using IL-12 p35 and p40 cDNA probes. We first examined the kinetics of mRNA accumulation in cultures of hPBMC and THP-1 cells primed with IFN-γ followed by SAC stimulation in the presence or absence of 1 μM Compound 1.

IL-12 p40 mRNA = assay: Northern blot of IL-12 p40 mRNA in IFN-γ/SAC-stimulated human PBMC; type: cell-based; conditions: hPBMC; for IL-12 p40 mRNA accumulation: 6 h after SAC
Protocol: as §1
(§2) We conducted a dose-response study of the inhibitory effects of Compound 1 on IL-12 mRNA expression in IFN-γ/SAC-stimulated hPBMC. Because both IL-12 p35 and p40 mRNA levels were maximal at 6 h after the addition of SAC, this time point was selected for the dose-response analysis.

IL-12 p35 mRNA [2] = assay: Northern blot of IL-12 p35 mRNA in IFN-γ/SAC-stimulated human PBMC; type: cell-based; conditions: hPBMC
Protocol: as §1, §2

IL-12 p40 = IL-12 p40 inhibition after Toxoplasma antigen (STAg) versus IFN-γ/SAC stimulus; type: cell-based; conditions: preliminary results
Protocol: Compound 2 did, in fact, inhibit p70 but not p40 production in human DCs (no inhibition at up to 10 μM Compound 2). […] Therefore, if Compound 2 is acting through c-Rel, we should not observe potent inhibition of IL-12 p40 following STAg stimulation. […] These two results further confirm that the inhibition of IL-12 production by Compound 2 is via the c-Rel pathway.

p50 = assay: ELISA based transcriptional factor-DNA binding activity assay, THP-1 nuclear extracts, p50; type: cell-based, human; conditions: IFN-γ/LPS, 500 nm, 3 hrs
Protocol: Nuclear extracts were prepared from IFN-γ-primed THP-1 cells that had been treated with or without SAC and incubated in the presence or absence of 1 μM Compound 1 or 10 mM ASA. Isolation of nuclear extracts was accomplished by first suspending THP-1 cells in 20 volumes of buffer A containing 10 mM KCl, 10 mM HEPES (pH 7.9), 1 mM MgCl2, 1 mM dithiothreitol (DTT), 0.1% Nonidet p40 (NP-40), and 0.5 mM phenylmethylsulfonyl fluoride (PMSF) and then homogenizing and centrifuging at 10,000 rpm at 4° C. for 5 min. Nuclear pellets were then suspended in buffer C containing 400 mM NaCl, 20 mM HEPES pH 7.9), 15 mM MgCl2, 0.2 mM EDTA, 1 mM DTT, 25% glycerol, 1 mM PMSF, and 10 μg of leupeptin, 20 μg of pepstatin, and 10 μg of antipain per ml, incubated for 30 min at 4° C., and centrifuge at 14,000 rpm for […]. The supernatants were dialyzed against buffer D containing 100 mM NaCl, 20 mM HEPES (pH 7.9), 20% glycerol, 1 mM PMSF, and 1 mM DTT.
To understand the action of Compound 2 in NF-κB binding, several NF-κB family members, p50, c-Rel and p65 were investigated using an ELISA based transcriptional factor-DNA binding activity assay system. […]

IκBα = assay: Inducible degradation of IκBα, Western blot and FACS analysis; type: cell-based, human; conditions: THP-1 and RAW267.4 cells, IFN-γ/LPS or IFN-γ/SAC, 500 nM, 30 min and 2 hrs
Protocol: IκB degradation is one of the steps in the signaling pathway of NFκB dependent genes. The activity of Compound 2 in inducible degradation of IκBα □ and IκBβ was investigated in THP-1 cells using Western blot and FACS analysis. […] Similar results were observed from the Compound 2 pre-treatment samples in which Compound 2 was added […] before stimulation.

Row | pIC50 (IL-12 p35 mRNA [2]; Homo sapiens, PBMC, 6 h after SAC, read-out: IC50, IL-12 p35 mRNA accumulation) | SMILES | IL-12 p35 mRNA (IL-12 p35 mRNA [1]) | expression of the mRNA for the p40 subunit (IL-12 p40 mRNA; 1 μM Compound 1) | IL-12 p40 mRNA accumulation (IL-12 p40 mRNA; 1 nM) | IL-12 p40 mRNA accumulation (IL-12 p40 mRNA; 10 nM) | expression of p35 mRNA (IL-12 p35 mRNA [2]; 1 μM Compound 1, all sampling times) | induction of IL-12 p35 mRNA accumulation (IL-12 p35 mRNA [2]; 6 h after SAC, 3 nM) | IC50 of p40 inhibition with STAg induction relative to IFN-γ/SAC stimulus (IL-12 p40) | binding activity of p50 (p50) | amount of IκBα in the cytoplasm, treated vs untreated (IκBα)
1 | > 9.00 | C(=NNc1nc(OCCc2ccccn2)nc(N2CCOCC2)n1)c1c[nH]c2ccccc12 [Compound 1, N-(1H-indol-3-ylmethylene)-N′-[4-morpholin-4-yl-6-(2-pyridin-2-yl-ethoxy)-[1,3,5]triazin-2-yl]-hydrazine] | undetectable | reduced significantly but incompletely | barely inhibited | maximum, though still incomplete inhibition | completely inhibited | completely reversed |  |  | 
2 |  | Cc1cccc(C=NNc2cc(N3CCOCC3)nc(OCCc3ccccn3)n2)c1 [Compound 2, N-(3-methyl-benzylidene)-N′-[6-morpholin-4-yl-2-(2-pyridin-2-yl-ethoxy)-pyrimidin-4-yl]-hydrazine] |  |  |  |  |  |  | approximately 1000 times | slightly decreased | no significant difference
